Test results reported in patent US20030130180A1, “Utilization of an aminopeptidase inhibitor” (priority 2000, published 2003).

Test system: Karpas cells
Assay: Detection of surface protein combinations of the protein network on untreated (V1) and actinonin-treated (V2) Karpas cells
Type: cell-based
Details: actinonin-treated Karpas cells (V2)
Text: Principally, detecting of the surface protein combinations may comprise procedural steps of an automated method for determining molecular classes, molecular groups or molecular parts in a solid or liquid object according to DE 197 09 348 C. In these steps, surface proteins may be examined and measured in one and the same object, i.e. in a sample of immune cells and/or tumor cells for example, by sequentially applying reagent solutions Yn (n=1,2,3, . . . N) by means of an automated apparatus, said procedural steps being: I. taking a first reagent solution Y1 from a vessel containing the reagent solution, II. applying said reagent solution Y1 to the object which is on an object slide, III. allowing the reagent solution to react for an automatically set period of time, IV. recording at least one individual labeling pattern of the object previously labeled with said first reagent solution Y1, V. repeating steps I-IV by applying said first reagent solution Y1 or a second reagent solution Y2 or a mixture of said first and second reagent solutions, and VI. repeating steps I to V with further reagent solutions Yn (n=2,3, . . . N) or a mixture thereof and whereby the labeling distribution patterns obtained in each cycle of the method are turned into a complex molecular combination pattern of the object to be examined by computer-aided image overlay. From this combination pattern, information may be gained on the presence of the above mentioned proteins, thus also allowing detection of the surface protein combinations, if the reagent solutions used contain labeled substances directed against the proteins in question. In numerous examinations, it was possible to identify the 30 cell surface proteins already listed above which belong to a specific protein network controlling the early polarization stages of tumor cells and immune cells. In a further examination, surface protein combinations of this protein network of Karpas cells were detected, both in untreated form and after treatment with the aminopeptidase inhibitor actinonin. For this purpose, two groups V1 and V2 of Karpas cells were formed, with the cells of group Vl remaining untreated, while the cells of group V2 were treated with actinonin. Table 2 lists those surface protein combinations which are present both in the actinonin-treated cells and in the untreated cells. However, this table and the further tables 3 and 4 only give examples of 18 of the 30 proteins, with the detected proteins being designated 1 and the non-detected proteins being designated 0. The proteins are continuously numbered 1 to 18, with the nomenclature being notable from table 1. [table] The cell numbers stated in tables 2 to 4 refer to each 1,000 cells examined in groups V1 and V2. Table 3 lists the surface protein combinations which only occur in the untreated Karpas cells and are never found in the actinonin-treated Karpas cells. The number of protein combinations listed in this table 3 amounts to 131. Finally, table 4 exclusively lists those surface protein combinations which occur exclusively in the actinonin-treated Karpas cells. It may be gathered from tables 2 to 4 that, if one examines merely 18 proteins of the 30 proteins, a total of 394 different surface protein combinations will occur, with a total of 334 different combinations occurring in the untreated cells and a total of 263 different combinations being detected in the treated cells.

Measured: V2 No. of cells In 1/1000

CCCCC[C@H](CC(=O)NO)C(=O)N[C@H](C(=O)N1CCC[C@H]1CO)C(C)C [actinonin]
0.0 1/1000: surface protein combination No. 19, binary code proteins 1-18: 011000011101011100, untreated V1: 0.4 | surface protein combination No. 20, binary code proteins 1-18: 011000011000000000, untreated V1: 0.4 | surface protein combination No. 21, binary code proteins 1-18: 010000001101001100, untreated V1: 0.4 | surface protein combination No. 22, binary code proteins 1-18: 010000001100011100, untreated V1: 0.4 | surface protein combination No. 23, binary code proteins 1-18: 001100011011001000, untreated V1: 0.4 | surface protein combination No. 24, binary code proteins 1-18: 001100011001001000, untreated V1: 0.4 | surface protein combination No. 25, binary code proteins 1-18: 001000010101101000, untreated V1: 0.4 | surface protein combination No. 26, binary code proteins 1-18: 001000010010001000, untreated V1: 0.4 | surface protein combination No. 27, binary code proteins 1-18: 000000000010001000, untreated V1: 0.4 | surface protein combination No. 28, binary code proteins 1-18: 111000011111011100, untreated V1: 0.2 | surface protein combination No. 29, binary code proteins 1-18: 110000011100011100, untreated V1: 0.2 | surface protein combination No. 30, binary code proteins 1-18: 101100000000001100, untreated V1: 0.2 | surface protein combination No. 31, binary code proteins 1-18: 101000111111011000, untreated V1: 0.2 | surface protein combination No. 32, binary code proteins 1-18: 011100011111011100, untreated V1: 0.2 | surface protein combination No. 33, binary code proteins 1-18: 011100011100001000, untreated V1: 0.2 | surface protein combination No. 34, binary code proteins 1-18: 011100001100001100, untreated V1: 0.2 | surface protein combination No. 35, binary code proteins 1-18: 001100000011001000, untreated V1: 0.2 | surface protein combination No. 36, binary code proteins 1-18: 001000011100000000, untreated V1: 0.2 | surface protein combination No. 37, binary code proteins 1-18: 001000010111011100, untreated V1: 0.2 | surface protein combination No. 38, binary code proteins 1-18: 001000010110001000, untreated V1: 0.2 | surface protein combination No. 39, binary code proteins 1-18: 001000001011000000, untreated V1: 0.2 | surface protein combination No. 40, binary code proteins 1-18: 000100010100001000, untreated V1: 0.2 | surface protein combination No. 41, binary code proteins 1-18: 000000011011001000, untreated V1: 0.2 | surface protein combination No. 42, binary code proteins 1-18: 000000010110001000, untreated V1: 0.2 | surface protein combination No. 43, binary code proteins 1-18: 000000010010001000, untreated V1: 0.2 | surface protein combination No. 44, binary code proteins 1-18: 000000000000001100, untreated V1: 0.2 | surface protein combination No. 45, binary code proteins 1-18: 111100101100011000, untreated V1: 0.1 | surface protein combination No. 46, binary code proteins 1-18: 111100011101001100, untreated V1: 0.1 | surface protein combination No. 47, binary code proteins 1-18: 111100011100111100, untreated V1: 0.1 | surface protein combination No. 48, binary code proteins 1-18: 111100011100011000, untreated V1: 0.1 | surface protein combination No. 49, binary code proteins 1-18: 111000011111011000, untreated V1: 0.1 | surface protein combination No. 50, binary code proteins 1-18: 111000011101011000, untreated V1: 0.1 | surface protein combination No. 51, binary code proteins 1-18: 111000001100011100, untreated V1: 0.1 | surface protein combination No. 52, binary code proteins 1-18: 110000001101011100, untreated V1: 0.1 | surface protein combination No. 53, binary code proteins 1-18: 110000001100000100, untreated V1: 0.1 | surface protein combination No. 54, binary code proteins 1-18: 101100011011011000, untreated V1: 0.1 | surface protein combination No. 55, binary code proteins 1-18: 101100010111001100, untreated V1: 0.1 | surface protein combination No. 56, binary code proteins 1-18: 101100010011001000, untreated V1: 0.1 | surface protein combination No. 57, binary code proteins 1-18: 101100000000001000, untreated V1: 0.1 | surface protein combination No. 58, binary code proteins 1-18: 101000110101011000, untreated V1: 0.1 | surface protein combination No. 59, binary code proteins 1-18: 101000011111011100, untreated V1: 0.1 | surface protein combination No. 60, binary code proteins 1-18: 101000011101011000, untreated V1: 0.1 | surface protein combination No. 61, binary code proteins 1-18: 101000010111111000, untreated V1: 0.1 | surface protein combination No. 62, binary code proteins 1-18: 101000010101011100, untreated V1: 0.1 | surface protein combination No. 63, binary code proteins 1-18: 100100110100011100, untreated V1: 0.1 | surface protein combination No. 93, binary code 001100010111111000 | surface protein combination No. 94, binary code 001100010111101100 | surface protein combination No. 95, binary code 001100010100011000 | surface protein combination No. 96, binary code 001100010011001100 | surface protein combination No. 97, binary code 001100010001001100 | surface protein combination No. 98, binary code 001100001101001000 | surface protein combination No. 99, binary code 001100000101000000 | surface protein combination No. 100, binary code 001000111111011000 | surface protein combination No. 101, binary code 001000111101011000 | surface protein combination No. 102, binary code 001000111011011000 | surface protein combination No. 103, binary code 001000011111011100 | surface protein combination No. 104, binary code 001000011101101000 | surface protein combination No. 105, binary code 001000011001011000 | surface protein combination No. 106, binary code 001000011001000100 | surface protein combination No. 107, binary code 001000010111101000 | surface protein combination No. 108, binary code 001000010101000100 | surface protein combination No. 109, binary code 001000010100011000 | surface protein combination No. 110, binary code 001000010011010000 | surface protein combination No. 111, binary code 001000010001011100 | surface protein combination No. 112, binary code 001000001111001000 | surface protein combination No. 113, binary code 001000001011001000 | surface protein combination No. 114, binary code 001000001001001000 | surface protein combination No. 115, binary code 001000001000000000 | surface protein combination No. 116, binary code 001000000110001000 | surface protein combination No. 117, binary code 000100011001000000
